Reference: patent publication US7067277B1, “Chimeric G proteins and uses thereof” (H. Lundbeck A/S, priority 1999, dated 2006)

Molecular target: T1, Human NPFF1 (Homo sapiens, UniProt Q9GZQ6)
T1 construct: linearized plasmids or PCR products containing the complete coding region of the genes; expressed in transfected cells; host or cells: Xenopus laevis oocytes (receptor cRNA injected)
Assay: Cl- current recording in Xenopus oocytes expressing GPCR and chimeric G protein
Assay type: cell-based
Conditions: oocytes injected with 50 nl of 10 mM EGTA
Experimental: Oocytes were harvested from Xenopus laevis and injected with mRNA transcripts as previously described (Quick and Lester, 1994; Smith et al., 1997). Receptor and chimeric G protein α subunit RNA transcripts were synthesized using the T7 polymerase (“Message Machine,” Ambion) from linearized plasmids or PCR products containing the complete coding region of the genes. Oocytes were injected with 5–25 ng synthetic receptor RNA and incubated for 3–8 days at 17 degrees. Three to eight hours prior to recording, oocytes were injected with 500 pg chimeric Gα subunit mRNA. Dual electrode voltage clamp (Axon Instruments Inc.) was performed using 3 M KCl-filled glass microelectrodes having resistances of 1–2 MOhm. Unless otherwise specified, oocytes were voltage clamped at a holding potential of −80 mV. During recordings, oocytes were bathed in continuously flowing (1–3 ml/min) medium containing 96 mM NaCl, 2 mM KCl, 1.8 mM CaCl2, 1 mM MgCl2, and 5 mM HEPES, pH 7.5 (ND96). Drugs were applied by local perfusion from a 10 μl glass capillary tube fixed at a distance of 0.5 mm from the oocyte. Experiments were carried out at room temperature. All values are expressed as mean±standard error of the mean.

T1 sequence (Q9GZQ6 whole entry): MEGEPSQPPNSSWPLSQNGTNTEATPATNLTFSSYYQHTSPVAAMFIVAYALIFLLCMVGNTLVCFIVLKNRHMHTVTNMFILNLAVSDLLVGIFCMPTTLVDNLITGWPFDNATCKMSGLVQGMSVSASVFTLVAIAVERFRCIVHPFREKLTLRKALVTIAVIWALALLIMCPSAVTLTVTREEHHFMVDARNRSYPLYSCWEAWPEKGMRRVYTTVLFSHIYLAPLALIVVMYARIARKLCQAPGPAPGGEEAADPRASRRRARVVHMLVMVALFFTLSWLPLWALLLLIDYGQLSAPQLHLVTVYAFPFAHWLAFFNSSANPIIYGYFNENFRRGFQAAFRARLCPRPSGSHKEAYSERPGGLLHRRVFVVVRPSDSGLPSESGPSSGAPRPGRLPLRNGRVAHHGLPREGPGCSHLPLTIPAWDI

currents stimulated by NPFF in oocytes expressing NPFF1 and cGαq/z5: blocked
Compound: O=C(O)CN(CCOCCOCCN(CC(=O)O)CC(=O)O)CC(=O)O [EGTA, reference compound]
